The NIST ThermoML archive (doi:10.1021/je060271a)
“And” between values parts separate entries of the source, which are not always exact repeats. Equal entries are not always repeated. ± gives the expanded uncertainty stated by the source.

Details: 343.15 K, Liquid, Vibrating tube method

CCCCCCC(=O)OCC(COC(=O)CCCCCC)(COC(=O)CCCCCC)COC(=O)CCCCCC [pentaerythritol tetraheptanoate]
Details	mass density
143.4 kPa	940.7 ± 1.1 kg/m3
144.1 kPa	940.6 ± 1.1 kg/m3
144.3 kPa	940.8 ± 1.1 kg/m3
144.8 kPa	940.7 ± 1.1 kg/m3 and 940.6 ± 1.1 kg/m3
145 kPa	940.6 ± 1.1 kg/m3 and 940.7 ± 1.1 kg/m3
145.7 kPa	940.7 ± 1.1 kg/m3
145.9 kPa	940.6 ± 1.1 kg/m3
146.2 kPa	940.6 ± 1.1 kg/m3
146.4 kPa	940.7 ± 1.1 kg/m3
146.9 kPa	940.6 ± 1.1 kg/m3
147.3 kPa	940.6 ± 1.1 kg/m3
147.6 kPa	940.7 ± 1.1 kg/m3
148.1 kPa	940.8 ± 1.1 kg/m3
148.5 kPa	940.7 ± 1.1 kg/m3
148.8 kPa	940.6 ± 1.1 kg/m3
149 kPa	940.7 ± 1.1 kg/m3
149.2 kPa	940.7 ± 1.1 kg/m3
149.7 kPa	940.6 ± 1.1 kg/m3
149.9 kPa	940.6 ± 1.1 kg/m3
150 kPa	940.7 ± 1.1 kg/m3
150.2 kPa	940.7 ± 1.1 kg/m3
150.4 kPa	940.8 ± 1.1 kg/m3
151.1 kPa	940.6 ± 1.1 kg/m3
151.3 kPa	940.7 ± 1.1 kg/m3
151.8 kPa	940.7 ± 1.1 kg/m3 and 940.6 ± 1.1 kg/m3
151.9 kPa	940.6 ± 1.1 kg/m3
152.5 kPa	940.7 ± 1.1 kg/m3
153 kPa	940.8 ± 1.1 kg/m3
153.2 kPa	940.8 ± 1.1 kg/m3
153.7 kPa	940.8 ± 1.1 kg/m3
153.9 kPa	940.7 ± 1.1 kg/m3
154.2 kPa	940.7 ± 1.1 kg/m3
154.9 kPa	940.7 ± 1.1 kg/m3
155.1 kPa	940.7 ± 1.1 kg/m3
155.6 kPa	940.7 ± 1.1 kg/m3
155.8 kPa	940.7 ± 1.1 kg/m3
155.9 kPa	940.8 ± 1.1 kg/m3
156.3 kPa	940.7 ± 1.1 kg/m3
156.8 kPa	940.7 ± 1.1 kg/m3
157 kPa	940.7 ± 1.1 kg/m3
157.5 kPa	940.7 ± 1.1 kg/m3
157.9 kPa	940.7 ± 1.1 kg/m3
158.2 kPa	940.7 ± 1.1 kg/m3
159.1 kPa	940.7 ± 1.1 kg/m3
159.2 kPa	940.8 ± 1.1 kg/m3
159.6 kPa	940.7 ± 1.1 kg/m3
159.9 kPa	940.7 ± 1.1 kg/m3
160.6 kPa	940.7 ± 1.1 kg/m3
161.3 kPa	940.7 ± 1.1 kg/m3
161.5 kPa	940.6 ± 1.1 kg/m3
162.2 kPa	940.6 ± 1.1 kg/m3
162.6 kPa	940.6 ± 1.1 kg/m3
163.3 kPa	940.8 ± 1.1 kg/m3
163.4 kPa	940.7 ± 1.1 kg/m3
163.9 kPa	940.7 ± 1.1 kg/m3
164.5 kPa	940.7 ± 1.1 kg/m3
164.8 kPa	940.7 ± 1.1 kg/m3
165.2 kPa	940.7 ± 1.1 kg/m3
165.7 kPa	940.7 ± 1.1 kg/m3
166.2 kPa	940.8 ± 1.1 kg/m3
166.7 kPa	940.6 ± 1.1 kg/m3
167.3 kPa	940.6 ± 1.1 kg/m3
167.9 kPa	940.6 ± 1.1 kg/m3
168.3 kPa	940.8 ± 1.1 kg/m3
168.6 kPa	940.7 ± 1.1 kg/m3
169.2 kPa	940.7 ± 1.1 kg/m3
169.9 kPa	940.6 ± 1.1 kg/m3
170.4 kPa	940.8 ± 1.1 kg/m3
170.9 kPa	940.6 ± 1.1 kg/m3
171.2 kPa	940.7 ± 1.1 kg/m3
171.8 kPa	940.6 ± 1.1 kg/m3
172.3 kPa	940.6 ± 1.1 kg/m3
172.8 kPa	940.7 ± 1.1 kg/m3
173 kPa	940.7 ± 1.1 kg/m3
173.2 kPa	940.7 ± 1.1 kg/m3
173.7 kPa	940.7 ± 1.1 kg/m3
174.4 kPa	940.6 ± 1.1 kg/m3
174.9 kPa	940.7 ± 1.1 kg/m3
175.2 kPa	940.6 ± 1.1 kg/m3
175.9 kPa	940.7 ± 1.1 kg/m3
176.5 kPa	940.8 ± 1.1 kg/m3
177.1 kPa	940.7 ± 1.1 kg/m3
178 kPa	940.7 ± 1.1 kg/m3
178.4 kPa	940.6 ± 1.1 kg/m3
178.9 kPa	940.7 ± 1.1 kg/m3
179.6 kPa	940.7 ± 1.1 kg/m3
180.8 kPa	940.7 ± 1.1 kg/m3
181.5 kPa	940.6 ± 1.1 kg/m3
182.2 kPa	940.7 ± 1.1 kg/m3
182.7 kPa	940.8 ± 1.1 kg/m3
183.2 kPa	940.7 ± 1.1 kg/m3
184.1 kPa	940.6 ± 1.1 kg/m3
184.8 kPa	940.8 ± 1.1 kg/m3
185.3 kPa	940.6 ± 1.1 kg/m3
185.8 kPa	940.8 ± 1.1 kg/m3
186.7 kPa	940.7 ± 1.1 kg/m3
187.1 kPa	940.6 ± 1.1 kg/m3
188.1 kPa	940.7 ± 1.1 kg/m3
188.8 kPa	940.6 ± 1.1 kg/m3
189.3 kPa	940.7 ± 1.1 kg/m3
190 kPa	940.8 ± 1.1 kg/m3
191.1 kPa	940.6 ± 1.1 kg/m3
191.7 kPa	940.6 ± 1.1 kg/m3
192.3 kPa	940.7 ± 1.1 kg/m3
193.1 kPa	940.6 ± 1.1 kg/m3
193.6 kPa	940.6 ± 1.1 kg/m3
194.3 kPa	940.7 ± 1.1 kg/m3
195.4 kPa	940.8 ± 1.1 kg/m3
196.1 kPa	940.8 ± 1.1 kg/m3
197.1 kPa	940.7 ± 1.1 kg/m3
197.7 kPa	940.8 ± 1.1 kg/m3
198.3 kPa	940.8 ± 1.1 kg/m3
199.4 kPa	940.6 ± 1.1 kg/m3
200.6 kPa	940.7 ± 1.1 kg/m3
201.5 kPa	940.8 ± 1.1 kg/m3
202.5 kPa	940.8 ± 1.1 kg/m3
203.4 kPa	940.7 ± 1.1 kg/m3
204.1 kPa	940.7 ± 1.1 kg/m3
205.3 kPa	940.7 ± 1.1 kg/m3
206 kPa	940.7 ± 1.1 kg/m3
206.9 kPa	940.9 ± 1.1 kg/m3
207.7 kPa	940.8 ± 1.1 kg/m3
208.6 kPa	940.7 ± 1.1 kg/m3
210 kPa	940.7 ± 1.1 kg/m3
211 kPa	940.6 ± 1.1 kg/m3
211.7 kPa	940.7 ± 1.1 kg/m3
212.8 kPa	940.9 ± 1.1 kg/m3
213.6 kPa	940.7 ± 1.1 kg/m3
214.8 kPa	940.7 ± 1.1 kg/m3
215.9 kPa	940.7 ± 1.1 kg/m3
217.1 kPa	940.8 ± 1.1 kg/m3
218 kPa	940.8 ± 1.1 kg/m3
219 kPa	940.7 ± 1.1 kg/m3
220.2 kPa	940.8 ± 1.1 kg/m3
222.7 kPa	940.7 ± 1.1 kg/m3
224.1 kPa	940.8 ± 1.1 kg/m3
225.1 kPa	940.7 ± 1.1 kg/m3
226.1 kPa	940.7 ± 1.1 kg/m3
227 kPa	940.8 ± 1.1 kg/m3
228.6 kPa	940.8 ± 1.1 kg/m3
229.8 kPa	940.8 ± 1.1 kg/m3
231 kPa	940.7 ± 1.1 kg/m3
232.2 kPa	940.7 ± 1.1 kg/m3
233.4 kPa	940.6 ± 1.1 kg/m3
234.5 kPa	940.7 ± 1.1 kg/m3
236.2 kPa	940.7 ± 1.1 kg/m3
237.9 kPa	940.8 ± 1.1 kg/m3
239.3 kPa	940.7 ± 1.1 kg/m3
241.1 kPa	940.7 ± 1.1 kg/m3
242 kPa	940.7 ± 1.1 kg/m3
243.9 kPa	940.6 ± 1.1 kg/m3
244.9 kPa	940.7 ± 1.1 kg/m3
246.3 kPa	940.8 ± 1.1 kg/m3
248 kPa	940.6 ± 1.1 kg/m3
250 kPa	940.7 ± 1.1 kg/m3
251 kPa	940.7 ± 1.1 kg/m3
252.9 kPa	940.8 ± 1.1 kg/m3
254.6 kPa	940.7 ± 1.1 kg/m3
255.8 kPa	940.8 ± 1.1 kg/m3
257.9 kPa	940.7 ± 1.1 kg/m3
259.5 kPa	940.8 ± 1.1 kg/m3
260.5 kPa	940.8 ± 1.1 kg/m3
262.3 kPa	940.8 ± 1.1 kg/m3
263.7 kPa	940.7 ± 1.1 kg/m3
265.9 kPa	940.8 ± 1.1 kg/m3
268 kPa	940.8 ± 1.1 kg/m3
269.6 kPa	940.6 ± 1.1 kg/m3
271.8 kPa	940.8 ± 1.1 kg/m3
273.9 kPa	940.8 ± 1.1 kg/m3
276.2 kPa	940.7 ± 1.1 kg/m3
277.7 kPa	940.7 ± 1.1 kg/m3
279.5 kPa	940.8 ± 1.1 kg/m3
281.6 kPa	940.7 ± 1.1 kg/m3
284.2 kPa	940.8 ± 1.1 kg/m3
287.1 kPa	940.8 ± 1.1 kg/m3
288.7 kPa	940.8 ± 1.1 kg/m3
291.3 kPa	940.8 ± 1.1 kg/m3
293.5 kPa	940.9 ± 1.1 kg/m3
295.8 kPa	940.7 ± 1.1 kg/m3
297.9 kPa	940.8 ± 1.1 kg/m3
302.9 kPa	940.9 ± 1.1 kg/m3
305.2 kPa	940.8 ± 1.1 kg/m3
308.3 kPa	940.8 ± 1.1 kg/m3
310.8 kPa	940.8 ± 1.1 kg/m3
314.1 kPa	940.9 ± 1.1 kg/m3
316.5 kPa	940.9 ± 1.1 kg/m3
319.1 kPa	940.8 ± 1.1 kg/m3
321.4 kPa	940.8 ± 1.1 kg/m3
324.7 kPa	940.8 ± 1.1 kg/m3
327.3 kPa	940.7 ± 1.1 kg/m3
330.2 kPa	940.7 ± 1.1 kg/m3
333.5 kPa	940.9 ± 1.1 kg/m3
336 kPa	940.7 ± 1.1 kg/m3
340 kPa	940.7 ± 1.1 kg/m3
343.3 kPa	940.9 ± 1.1 kg/m3
346.2 kPa	940.8 ± 1.1 kg/m3
349.4 kPa	940.8 ± 1.1 kg/m3
353.2 kPa	941 ± 1.1 kg/m3
356.5 kPa	940.7 ± 1.1 kg/m3
359.8 kPa	940.9 ± 1.1 kg/m3
364.3 kPa	940.9 ± 1.1 kg/m3
367.4 kPa	940.8 ± 1.1 kg/m3
371.8 kPa	940.8 ± 1.1 kg/m3
375.3 kPa	940.8 ± 1.1 kg/m3
378.9 kPa	940.8 ± 1.1 kg/m3
382.9 kPa	941 ± 1.1 kg/m3
387.8 kPa	940.9 ± 1.1 kg/m3
391.6 kPa	940.9 ± 1.1 kg/m3
395.9 kPa	940.9 ± 1.1 kg/m3
400.5 kPa	940.9 ± 1.1 kg/m3
405 kPa	940.9 ± 1.1 kg/m3
410.2 kPa	941 ± 1.1 kg/m3
414.7 kPa	941 ± 1.1 kg/m3
419.2 kPa	940.9 ± 1.1 kg/m3
423.8 kPa	940.9 ± 1.1 kg/m3
429.5 kPa	940.8 ± 1.1 kg/m3
434.5 kPa	940.9 ± 1.1 kg/m3
440.6 kPa	940.9 ± 1.1 kg/m3
445.7 kPa	940.9 ± 1.1 kg/m3
451.2 kPa	941 ± 1.1 kg/m3
457.5 kPa	941 ± 1.1 kg/m3
463.2 kPa	940.9 ± 1.1 kg/m3
468.9 kPa	940.8 ± 1.1 kg/m3
